Data: patent US10864197B2, “Biphenyl sulfonamide compounds for the treatment of kidney diseases or disorders” (Retrophin, Inc., priority 2016, dated 2020)

Test: DUET trial: treatment emergent adverse events and edema severity
Assay type: in vivo, human
Settings: for Patients with Edema, Severity Grade 0 / Patients with Edema, Severity Grade 1+ to 2+ / Patients with Edema, Severity Grade 3+ to 4+ / Percent of patients having treatment emergent adverse effects: Any / Percent of patients having treatment emergent adverse effects: Drug-related / Percent of patients having treatment emergent adverse effects: Leading to dose change or interruption / Percent of patients having treatment emergent adverse effects: Leading to drug discontinuation / Percent of patients having treatment emergent adverse effects: Leading to study withdrawal / Percent of patients having treatment emergent adverse effects: Serious / Percent of patients with Cough / Percent of patients with Diarrhea / Percent of patients with Dizziness / Percent of patients with Edema/edema peripheral / Percent of patients with Fatigue / Percent of patients with Headache / Percent of patients with Hypotension/orthostatic hypotension / Percent of patients with Muscle spasms / Percent of patients with Nasal congestion / Percent of patients with Nausea / Percent of patients with Upper abdominal pain / Percent of patients with Upper respiratory tract infection / Percent of patients with Vomiting: human, in vivo; for Percent of patients having treatment emergent adverse effects: Death: irbesartan n=36, sparsentan all doses n=73
From the text: DUET trial is a phase 2, double-blind, randomized, active-control, dose-escalation study (NCT01613118) that evaluates the efficacy and safety of sparsentan as a treatment for primary focal segmental glomerulosclerosis (FSGS), a rare disorder characterized by massive proteinuria and progressive loss of kidney function. Patients (ranging in age from 8 years to 75 years) with biopsy-proven primary FSGS (or documentation of a genetic mutation in a podocyte protein associated with the disease) having baseline urine protein to creatinine (“UP/C”) ratios greater than 1 g/g and estimated glomerular filtration rates greater than 30 ml/min were eligible for the study. The inclusion criteria also included a mean seated blood pressure >[…] and <145/96 mmHg for patients aged 18 years or older, or, for patients aged <18 years of age, a mean seated blood pressure of >90/60 mmHg and <95th percentile for age, gender, and height. The inclusion criteria included an allowance for a stable dose of immunosuppressive medication for ≥1 month. Exclusion criteria included secondary FSGS; significant medical conditions related to cardiac, hepatic, or immune function; body mass index >[…] for adults or in the 99th percentile plus 5 for pediatric patients; hematocrit <27% or hemoglobin <[…]; serum potassium >5.5 mEq/L; and women who were pregnant, breastfeeding, or of child-bearing potential who were unwilling to use two methods of contraception.
Patients who signed consent and met all inclusion and exclusion criteria during the screening phase underwent a 2-week angiotensin receptor blocker (ARB) and angiotensin converting enzyme (ACE) inhibitor washout period before being randomly assigned to one of the three escalating dose cohorts receiving sparsentan (200 mg/day; 400 mg/day; and 800 mg/day) or a fixed maximal dose of active control (the ARB irbesartan, at 300 mg/day) in a 3:1 ratio within each cohort. The primary endpoint was the change in UP/C ratio (determined as a measure of urinary protein excretion) from baseline. The proportion of patients achieving UP/C ratio ≤1.5 g/g with >40% reduction in UP/C ratio at Week 8, a modified responder analysis, was evaluated as secondary endpoint.
The incidences of specific treatment emergent adverse events for which the incidence was greater than 5% across all patients are shown in Table 7. Symptoms such as headache, dizziness, and edema may be associated with hypotension and some of those symptoms were more frequent in patients treated with sparsentan relative to those patients treated with irbesartan. However, there was no significant different between irbesartan-treated patients and sparsentan-treated patients in the worsening of existing edema (Table 8).

SMILES	Patients with Edema, Severity Grade 0 [%]	Patients with Edema, Severity Grade 1+ to 2+ [%]	Patients with Edema, Severity Grade 3+ to 4+ [%]	Patients with Edema, Severity Grade 0 (8 weeks) [%]	Patients with Edema, Severity Grade 1+ to 2+ (8 weeks) [%]	Patients with Edema, Severity Grade 3+ to 4+ (8 weeks) [%]	Percent of patients having treatment emergent adverse effects: Any (8 weeks) [%]	Percent of patients having treatment emergent adverse effects: Drug-related (8 weeks) [%]	Percent of patients having treatment emergent adverse effects: Leading to dose change or interruption (8 weeks) [%]	Percent of patients having treatment emergent adverse effects: Leading to drug discontinuation (8 weeks) [%]	Percent of patients having treatment emergent adverse effects: Leading to study withdrawal (8 weeks) [%]	Percent of patients having treatment emergent adverse effects: Serious (8 weeks) [%]	Percent of patients with Cough (8 weeks) [%]	Percent of patients with Diarrhea (8 weeks) [%]	Percent of patients with Dizziness (8 weeks) [%]	Percent of patients with Edema/edema peripheral (8 weeks) [%]	Percent of patients with Fatigue (8 weeks) [%]	Percent of patients with Headache (8 weeks) [%]	Percent of patients with Hypotension/orthostatic hypotension (8 weeks) [%]	Percent of patients with Muscle spasms (8 weeks) [%]	also measured
CCCCC1=NC2(CCCC2)C(=O)N1Cc1ccc(-c2ccccc2S(=O)(=O)Nc2noc(C)c2C)c(COCC)c1 [Sparsentan, 4′-((2-butyl-4-oxo-1,3-diazaspiro[4.4]non-1-en-3-yl)methyl)-N-(4,5-dimethylisoxazol-3-yl)-2′-(ethoxymethyl)-[1,1′-biphenyl]-2-sulfonamide]	66	32	2	65	30	5	76.7	43.8	23.3	4.1	2.7	2.7	4.1	8.2	13.7	12.3	4.1	19.2	16.4	0	Percent of patients with Nasal congestion (8 weeks): 2.7%; Percent of patients with Nausea (8 weeks): 12.3%; Percent of patients with Upper abdominal pain (8 weeks): 5.5%; Percent of patients with Upper respiratory tract infection (8 weeks): 2.7%; Percent of patients with Vomiting (8 weeks): 8.2%; Percent of patients having treatment emergent adverse effects: Death: 0%
CCCCC1=NC2(CCCC2)C(=O)N1Cc1ccc(-c2ccccc2-c2nnn[nH]2)cc1 [Irbesartan, irbesartan, reference compound]	76	21	3	86	14	0	72.2	36.1	8.3	2.8	2.8	2.8	5.6	2.8	11.1	2.8	11.1	19.4	8.3	5.6	Percent of patients with Nasal congestion (8 weeks): 11.1%; Percent of patients with Nausea (8 weeks): 8.3%; Percent of patients with Upper abdominal pain (8 weeks): 5.6%; Percent of patients with Upper respiratory tract infection (8 weeks): 5.6%; Percent of patients with Vomiting (8 weeks): 2.8%; Percent of patients having treatment emergent adverse effects: Death: 0%
